Results: publication PMC6220303 (EMBO Molecular Medicine, 2018)
Read-outs that look alike come from different tables or passages of the source.

Assays:
Aβ40 in rat brain tissue = assay: Aβ40 in rat brain and CSF after single oral dose; format: in vivo
Protocol: (§1) Therefore, we measured Aβ40 in rat brain tissue 4 h after oral administration over a range of doses. […] In addition, the effect‐over‐time curves for brain and CSF almost completely superimposed, showing that Aβ pharmacodynamics in CSF mirrors very well that in brain tissue.
Experiments were carried out in accordance with the guidelines of the Swiss Federal and Cantonal veterinary offices for care and use of laboratory animals or the Canadian Council on Animal Care (Ottawa, Canada), and the ARRIVE guidelines. Studies described in this report were approved by the Swiss Cantonal Veterinary Authority of Basel City, Switzerland, and performed according to animal license numbers BS‐2063, BS‐2077, and BS‐1094. Methods employed in PK/PD studies in rats and dogs are described (Neumann et al, 2015).
(§2) Electrochemiluminescence immunoassays (Mesoscale Diagnostics, Rockville, MD, USA) were used to determine Aβ38, Aβ40, Aβ42, sAPPα, and sAPPβ. For studies in normal mice and rats, the endogenous Aβ40 was extracted from the brain homogenate with 1% Triton X‐100, and the 4G8‐based assay kit was used for quantification according to the manufacturer's instructions. CSF was collected from the cisterna magna and also analyzed using the 4G8 kit. For studies in dogs, CSF was collected via a ventricular port, and the 6E10‐based Mesoscale Diagnostics kit for Aβ was used. For studies in APP23 mice, Aβ40 and Aβ42 were determined after extraction with 70% formic acid and subsequent neutralization.

Aβ40 and Aβ42 in dog CSF = Aβ40 and Aβ42 in dog CSF after single oral dose, PK/PD modeling; format: in vivo; conditions: Canis lupus familiaris
Protocol: as §1, §2

APP23‐transgenic mice = assay: Chronic treatment of APP23-transgenic mice, 6 months in food; format: in vivo, mouse
Protocol: The total amount of Aβ40 and Aβ42 in formic acid‐solubilized forebrain was determined by Aβ immunoassay. […] Next, we investigated the effects of long‐term Aβ reduction on downstream pathology relevant for Alzheimer's disease, in particular neuroinflammation. Specifically, we used double‐immunofluorescence staining with NT12+anti‐Iba1 and NT12+anti‐GFAP to examine the number and localization of microglia and activated astrocytes, respectively (Fig 4E). […] The reason for the different sensitivity of microglia and astrocytes distant to plaques is currently not clear.
as §2
Amyloid plaques were stained using the Novartis-internal rabbit anti-Aβ antibody NT12, which recognizes all forms of Aβ (Neumann et al, 2015). Activated astrocytes were detected using a commercial rabbit anti-GFAP (Z0334, Dako Schweiz GmbH, Baar, Switzerland, dilution 1:2000 in antibody diluent). Microglia cells were detected using a rabbit anti-Iba1 antibody (019-19741, Wako Chemicals GmbH, Neuss, Germany, dilution 1:200 in antibody diluent). All stainings were performed using the fully automated instrument Ventana Discovery® Ultra (Roche Diagnostics Schweiz AG, Rotkreuz, Switzerland). All chemicals were provided by Roche Diagnostic. Paraffin-embedded brain tissue sections of 3 µm were freshly cut and collected on SuperFrost+ slides. The tissues sections were de-paraffinized and rehydrated under solvent-free conditions (EZprep solution) followed by antigen retrieval (demasking) performed by heat retrieval cycles for 32 min in EDTA-based buffer (CC1 solution). Subsequently, slides were blocked for 4 min using the DISC Inhibitor RUO (reference 07017944001). The primary antibody anti-NT12 diluted at 1:20 000 in antibody diluent was manually added to tissue sections and incubated for 1h at room temperature. A short post-fixation (glutaraldehyde at 0.05%) was done before applying the […]
Detection was performed using the DISCOVERY FITC® following the manufacturer’s recommendations. Slides were then heat denaturated at 92°C for 20 min before a manual application of the second primary antibody (anti-GFAP diluted at 1:2000, anti-Iba1 diluted at 1:200) and incubated for 1h at room temperature. Sections were then incubated for 20 min at room temperature with UltraMap-anti-Rabbit HRP antibody, and the DISCOVERY Rhodamine kit […]
The slides were washed and mounted using Prolong® Gold antifade reagent (P36931, ThermoFisher, Switzerland) and further scanned with the Hamamatsu slide scanner instrument […]
(NanoZoomer 2.0 HT, scanning software NDP-Scan Version 2.5, Hamamatsu Photonics France, Swiss Office, Solothurn, Switzerland) at the 40x objective. The scanning settings were as follow: the exposure time with the DAPI filter was set at 57 ms, as was the FITC filter. The exposure time for the TRITC filter (detection of Rhodamine) was set at 14.2 ms.
For the quantitative plaque and blood vessel-associated Aβ evaluation based on image analysis, a proprietary image analysis platform (ASTORIA, Automated Stored Image Analysis) was developed based on MS Visual Studio 2010 and many functions from Matrox MIL V9 libraries (Matrox Inc, Quebec, Canada).
For the Aβ plaque, neuroinflammation and blood vessel analyses, the following sequence of steps was performed. (1) Slides were scanned with Hamamatsu Nanozoomer at 40x […]
magnification. […]

[1] = tested on: Aβ40 in APOE4‐TR mouse forebrain; assay: Forebrain Aβ40 in APOE4-TR mice; format: in vivo; conditions: highest dose of 17 mg/kg (30 μmol/kg), 4 h after dosing
Protocol: Data were analyzed with one way ANOVA and Dunnett's multiple comparison test. • B Distribution of APOE4 genotypes in the Phase IIa study versus their baseline Aβ42/40 ratios. The dashed line at Aβ42/40 ratio of 0.09 represents a cutoff, which separates a normal ratio from an abnormally low ratio. • C Comparison of CSF Aβ40 reduction in APOE4 non‐carriers and APOE4 carriers (mean ± SD). • D Comparison of CSFAβ40 reduction in participants with Aβ42/40 ≥ 0.09 and Aβ42/40 < 0.09 (mean ± SD). • E Comparison of Aβ42/40 ratio at baseline and at day 91 for all participants in the placebo, 35 mg, and 85‐mg dose group (mean ± SD, n = 25/group). • F Change of Aβ42/40 ratio for all participants with Aβ42/40 ≤ 0.09 at baseline; bars represent mean ± SD. […] Data were analyzed with one way ANOVA and Dunnett's multiple comparison test. […]
Electrochemiluminescence immunoassays (Mesoscale Diagnostics, Rockville, MD, USA) were used to determine Aβ38, Aβ40, Aβ42, sAPPα, and sAPPβ. For studies in normal mice and rats, the endogenous Aβ40 was extracted from the brain homogenate with 1% Triton X‐100, and the 4G8‐based assay kit was used for quantification according to the manufacturer's instructions. CSF was collected from the cisterna magna and also analyzed using the 4G8 kit. […] For studies in APP23 mice, Aβ40 and Aβ42 were determined after extraction with 70% formic acid and subsequent neutralization.

C[C@@]1(c2nc(NC(=O)c3ncc(C(F)(F)F)cc3Cl)ccc2F)CO[C@@](C)(C(F)(F)F)C(N)=N1 [CNP520]
Aβ40 reduction in rat brain and CSF (Aβ40 in rat brain tissue; 24 h after single oral 30 μmol/kg (15.4 mg/kg) dose): ~ 50% | ED50 (Aβ40 in rat brain tissue; Rattus norvegicus, read-out: ED50, oral dose required for 50% lowering of rat brain Aβ40, 4 h after oral administration): 2.4 ± 0.31 mg/kg | reduction of Aβ40 in rat brain tissue compared to untreated controls (Aβ40 in rat brain tissue; highest dose, 4 h after oral administration, mean ± SD): 89.3 ± 4.5% | IC50 (Aβ40 and Aβ42 in dog CSF; read-out: IC50 in vivo (free ED50), unbound CNP520 in dog blood, PK/PD modeling estimate): 0.0033 ± 3e-05 µM | IC50 (Aβ40 and Aβ42 in dog CSF; read-out: IC50 in vivo, total CNP520 in dog blood, PK/PD modeling estimate): 0.103 ± 0.0123 µM | CNP520 concentration in blood and brain at end of study (APP23‐transgenic mice; 4 and 40 mg/kg/day in food): approximately dose‐proportional | total Aβ-plaque area in the cortex (normalized to sample area) compared with vehicle (APP23‐transgenic mice; 4 and 40 mg/kg/day in food, 6 months, dose-dependent): decreased | sAPPα in mouse brain (APP23‐transgenic mice; 6 months): increased | increase in GFAP-stained astrocytes (APP23‐transgenic mice; 6 months, dose-dependent): prevented this increase | sAPPβ in mouse brain (APP23‐transgenic mice; 6 months, dose-dependent): decreased | formic acid-soluble Aβ40 and Aβ42 in forebrain compared with vehicle (APP23‐transgenic mice; high dose 40 mg/kg/day, 6 months): profoundly reduced | effect on CAA (vascular Aβ) in APP23 mice (APP23‐transgenic mice; separate study, first data, authors' response in review file): reduction of vascular Aβ | reduction in Aβ40 [1]: 77%
